“And” between values parts separate entries of the source, which are not always exact repeats. Identical values can stand only once.
Columns and labels:
[1] = test system: osteoblastic cells derived from murine calvaria; test: Etoposide-induced apoptosis of osteoblastic cells derived from murine calvaria (trypan blue uptake); assay type: cell-based
Method: Osteoblastic cells derived from murine calvaria were pretreated with the sterols for 1 hour before the addition of the pro-apoptotic agent, etoposide. Apoptosis was determined after 6 hours by trypan blue uptake (Jilka et al, J. Bone and Min. Res. 13:793:802, 1998). * indicates p<0.05 versus etoposide alone, by analysis of variance (ANOVA) (Student-Newman-Keuls method).
Osteoblastic cells derived from murine calvaria were pretreated for 1 hour with the pure receptor antagonist ICI182,780 (10^−7 M) before the addition of the test agents (10^−8 M). Apoptosis was induced and quantified as described in FIG. 3. * indicates p<0.05 versus etoposide alone, by ANOVA (Student-Newman-Keuls method).
In this experiment, osteoblastic cells were derived from murine calvaria and were pretreated with the sterols for 1 hour before the addition of the pro-apoptotic agent, etoposide.
In these experiments, cells were pretreated with the indicated concentrations of the various compounds for 1 hour, in the absence or presence of the androgen receptor antagonist flutamide, before the addition of the proapoptotic agent etoposide. Apoptosis was determined after 6 hours by trypan blue uptake as described in FIG. 3.

MLO-Y4 osteocytic cells = test: Etoposide-induced apoptosis of MLO-Y4 osteocytic cells (trypan blue uptake); assay type: cell-based, murine
Method: Cells were pretreated with the indicated concentrations of the compounds for 1 hour before the addition of the pro-apoptotic agent etoposide. Apoptosis was determined after 6 hour by trypan blue uptake as described in FIG. 3. * indicates p<0.05 versus etoposide alone, by ANOVA (Student-Newman-Keuls method).
MLO-Y4 cells were pretreated for 1 hour with the pure receptor antagonist ICI182,780 (10^−7 M) before the addition of the test agents (10^−8 M). Apoptosis was induced and quantified as described in FIG. 3. * indicates p<0.05 versus etoposide alone, by ANOVA (Student-Newman-Keuls method).
In this experiment, MLO-Y4 cells were pretreated with the indicated concentrations of the various compounds for 1 h before the addition of the pro-apoptotic agent, etoposide. Apoptosis was determined after 6 h by trypan blue uptake as described in FIG. 3.

[2] = BMD by dual-energy x-ray absorptiometry in intact or ovariectomized mice, 28 days; assay type: in vivo; parameters: global 1 (BMD) / hindquart 1 (BMD) / spine 1 (BMD) / global 2 (BMD) / hindquart 2 (BMD) / spine 2 (BMD) / global 1 (BMD), mean / hindquart 1 (BMD), mean / spine 1 (BMD), mean / global 2 (BMD), mean / hindquart 2 (BMD), mean / spine 2 (BMD), mean: unit not given here; details: for Global BMD: 2000 ng/g body weight for 28 days, mean; for global 2 (BMD), mean / hindquart 2 (BMD), mean / spine 2 (BMD), mean / global 2 (BMD) / hindquart 2 (BMD) / spine 2 (BMD): 2000 ng/g for 28 days, end of experiment; for global 2 (BMD), mean / hindquart 2 (BMD), mean / spine 2 (BMD), mean / global 1 (BMD), mean / hindquart 1 (BMD), mean / spine 1 (BMD), mean: group mean; for global 2 (BMD) / hindquart 2 (BMD) / spine 2 (BMD) / global 1 (BMD) / hindquart 1 (BMD) / spine 1 (BMD): individual animals; for global 1 (BMD), mean / hindquart 1 (BMD), mean / spine 1 (BMD), mean / global 1 (BMD) / hindquart 1 (BMD) / spine 1 (BMD): 2000 ng/g group, day 0 initial measurement
Method: In a representative experiment of this sort, six 4-5 month old female mice per group are screened twice for BMD in a four week period immediately prior to the initiation of the experiment to establish that peak adult bone mass has been attained. A subset of mice are then ovariectomized. Intact and ovariectomized mice are treated with vehicle, or 20, 200 or 2000 ng/g body weight estratriene-3-ol or another test compound.
Stock solutions of the test agents (10,000 μg/ml) are maintained in approximately 2.0 ml of 95% ethanol. These stocks are diluted in 95% ethanol to make 1000 μg/ml and 100 μg/ml concentrations. The concentration of the stocks is checked spectrophotometrically. For each animal injection, the test agent is diluted in sesame oil and sonicated. Test agents are administered for 28 days by subcutaneous injections on alternative days. The mice are weighed weekly and serum samples are collected at appropriate times for analysis of bone biochemical markers, such as osteocalcin or collagen cross-links. Tetracycline labeling is performed by administration of the antibiotic (30 mg/kg) at 2 and 8 days prior to the end of each experiment.
During the 28 day experiment, BMD is determined in live animals at day 0, 14 and 28. Following animal sacrifice at the end of the experiment, the vertebral bones L1-L4 are collected for fixation and embedded undecalcified in methylmethacrylate plastic for the determination of the prevalence of osteoblast and osteocyte apoptosis and other static and dynamic histomorphometric measurements. L5 vertebrae are isolated for determining anti-fracture efficacy of the compounds by assaying compression, 3 point bending and other appropriate biomechanical tests. Results confirming the expected efficacy of these compounds show decreased prevalence of osteoblast and/or osteocyte apoptosis, and/or positive BMD changes, and/or increased cancellous bone area, and/or increased rate of bone formation, and/or increased biomechanical strength.
As an example, the results of an experiment whereby 2000 ng/g body weight of estratriene-3-ol was administered for 28 days to estrogen-replete (intact) or estrogen-deficient (ovariectomized) mice are shown in Table 2.
Each row represents values for individual animals. The first three sets of numbers represent the initial BMD measurements (by dual-energy x-ray absorptiometry with Hologic QDR2000 plus, using customized software) at day 0 and the last three BMD measurements at the end of the experiment. Global=BMD of the entire skeleton minus the head and tail; hindquarters=the mean BMD of both hindlimbs; spine=the BMD of cervical, thoracic and lumbar spine.

[3] = Ovx mice, t-test ovx vs 2000 ng/g 0.0001

## C[C@@]12CCC[C@H]1[C@@H]1CCc3cc(O)ccc3[C@H]1CC2 [estratriene-3-ol]
[1]; 1 hour pretreatment before etoposide
  Inhibition of etoposide-induced osteoblast apoptosis: inhibition of etoposide-induced osteoblastic cell apoptosis was demonstrated
[1]; compound 10^−8 M, 1 h pretreatment with ICI182,780 10^−7 M
  Anti-apoptotic effect on osteoblastic cells after ICI182,780: abrogated
MLO-Y4 osteocytic cells; 1 h pretreatment before etoposide, trypan blue after 6 h
  Inhibition of etoposide-induced apoptosis of osteocytic cell line: dose-dependently inhibited
MLO-Y4 osteocytic cells; 1 h pretreatment with ICI182,780 10^−7 M
  Antiapoptotic effect on osteocytes after ICI182,780: abrogated
[2]; Ovx mice, p < 0.00001
  Global BMD: 0.0555 ± 0.0011 g/cm2
[2]; Ovx mice, t-test ovx vs 2000 ng/g 0.0000
  global 2 (BMD), mean: 0.0555
[2]; [3]
  hindquart 2 (BMD), mean: 0.0618
  spine 2 (BMD), mean: 0.0599
[2]; Ovx mice
  global 2 (BMD): 0.0565 and 0.0557 and 0.0548 and 0.0545 and 0.0564 and 0.0568 and 0.0550 and 0.0539
  hindquart 2 (BMD): 0.0602 and 0.0632 and 0.0599 (2×) and 0.0624 and 0.0598 and 0.0647 and 0.0630
  spine 2 (BMD): 0.0608 and 0.0585 and 0.0584 and 0.0598 and 0.0610 and 0.0625 and 0.0578 and 0.0605
  global 1 (BMD), mean: 0.0534
  hindquart 1 (BMD), mean: 0.0573
  spine 1 (BMD), mean: 0.0579
  global 1 (BMD): 0.0505 and 0.0542 and 0.0496 and 0.0540 and 0.0526 and 0.0569 and 0.0565 and 0.0528
  hindquart 1 (BMD): 0.0527 and 0.0588 and 0.0504 and 0.0596 and 0.0547 and 0.0604 and 0.0591 and 0.0582
  spine 1 (BMD): 0.0547 and 0.0581 and 0.0542 and 0.0586 and 0.0580 and 0.0628 and 0.0603 and 0.0568
[2]; intact mice, p < 0.002
  Global BMD: 0.0554 ± 0.0015 g/cm2
[2]; intact mice, t-test vehicle vs 2000 ng/g 0.0036
  global 2 (BMD), mean: 0.0554
[2]; intact mice, t-test vehicle vs 2000 ng/g 0.0037
  spine 2 (BMD), mean: 0.0609
[2]; intact mice, t-test vehicle vs 2000 ng/g 0.0077
  hindquart 2 (BMD), mean: 0.0605
[2]; intact mice
  global 2 (BMD): 0.0550 and 0.0543 and 0.0541 and 0.0568 (2×) and 0.0537 and 0.0574
  hindquart 2 (BMD): 0.0585 and 0.0603 and 0.0619 and 0.0629 and 0.0640 and 0.0554 and 0.0605
  spine 2 (BMD): 0.0602 and 0.0604 and 0.0601 and 0.0613 and 0.0620 and 0.0588 and 0.0632
  global 1 (BMD), mean: 0.0527
  hindquart 1 (BMD), mean: 0.0562
  spine 1 (BMD), mean: 0.0571
  global 1 (BMD): 0.0486 and 0.0511 and 0.0543 and 0.0537 and 0.0533 and 0.0521 and 0.0560
  hindquart 1 (BMD): 0.0509 and 0.0565 and 0.0605 and 0.0577 and 0.0546 and 0.0544 and 0.0587
  spine 1 (BMD): 0.0511 and 0.0560 and 0.0593 and 0.0584 and 0.0571 and 0.0555 and 0.0623
